Laboratory results taken from patent US6423707B1, “Nitroimidazole ester analogues and therapeutic applications” (California Pacific Medical Center, priority 2000, dated 2002).
≈ marks a conversion by molar mass, not a printed value. Where two headings read alike, the source gives them in different places.

Legend:
[1] = tested on: metronidazole resistant H. pylori isolate (ATCC strain 43579); assay: Helicobacter pylori microbicidal assay (Example 12); type: cell-based; conditions: for MBC: Helicobacter pylori
[2] = tested on: another H pylori isolate (a virulent human isolate used in the germ-free pig model); assay: microbe, parasite or virus in culture; type: cell-based; conditions: Helicobacter pylori
[3] = tested on: Helicobactor pylori ATCC strain 43579; assay: microbe, parasite or virus in culture; type: cell-based; conditions: Helicobacter pylori, ATCC43579, 72 h, read-out: MBC H. Pylori 43579
[4] = tested on: Ohio State university Helicobactor pylori isolate working seed lot #061697; assay: microbe, parasite or virus in culture; type: cell-based; conditions: Helicobacter pylori, 72 h, read-out: MBC OSU Isolate 061697
[5] = ATCC43579, lowest concentration that killed 100% of the H. pylori working solution, ATCC strain 43579, metronidazole-resistant, 72 hours, read-out: MBC (Minimal Bactericidal Concentration)
[6] = relative to positive control (=1), ATCC strain 43579
[7] = ATCC43579, 72 h, read-out: MBC (Minimal Bactericidal Concentration), lowest concentration that killed 100% of the H. pylori working solution, ATCC strain 43579, metronidazole-resistant, 72 hours
[8] = ATCC43579, 72 h, read-out: MBC (Minimal Bactericidal Concentration)

Compound	Bactericidal Activity Index [1]	Bactericidal Activity Index [1, 6]	MBC [3]	MBC [4]	further results
2-Methyl-5-nitro-1H-imidazole-1-ethyl 9-oxo-9H-thioxanthene-3-carboxylate [Formula 6]	6.4	–	–	–	MBC (Minimal Bactericidal Concentration) [1]: 14 µg/mL
Cc1ncc([N+](=O)[O-])n1CCO [Positive Control, metronidazole, reference compound]	–	1	–	–	MBC [1, 5]: 89 µg/mL (≈ 520 µM)
Cc1ncc([N+](=O)[O-])n1CCOC(=O)c1cc(-c2ccccc2)nc2ccccc12 [Formula 4C, 2-Methyl-5-nitro-1H-imidazole-1-ethyl 2-phenyl-4-quinolinecarboxylate]	–	45	10.3 µg/mL	20.5 µg/mL	MBC [2]: 10.2 µg/mL; MBC [1, 7]: 2 µg/mL; melting point: 122 to 124 °C
Cc1ncc([N+](=O)[O-])n1CCOC(=O)c1ccc(-c2ccc(Cl)cc2[N+](=O)[O-])o1 [Formula 13]	–	–	–	–	MBC [1, 8]: > 97 µg/mL
Cc1ncc([N+](=O)[O-])n1CCOC(=O)c1ccc([N+](=O)[O-])o1 [Formula 2C, 2-Methyl-5-nitro-1H-imidazole-1-ethyl 5-nitro-2-furoate]	29.7	–	12.6 µg/mL	12.6 µg/mL	MBC [1, 8]: 3 µg/mL; melting point: 150 to 152 °C
2-Methyl-5-nitro-1H-imidazole-1-ethyl 9,10-dihydro-9,10-dioxo-2-anthracenecarboxylate [Formula 9]	7.4	–	–	–	MBC (Minimal Bactericidal Concentration) [1]: 12 µg/mL
Cc1ncc([N+](=O)[O-])n1CCOC(=O)N1c2ccccc2Sc2ccccc21 [Formula 5C, 2-Methyl-5-nitro-1H-imidazole-1-ethyl phenothiazine-10-carboxylate]	–	44.5	10.3 µg/mL	10.3 µg/mL	MBC [2]: 10.2 µg/mL; MBC [1, 7]: 2 µg/mL
Cc1ncc([N+](=O)[O-])n1CCOC(=O)c1cc(=O)c2ccccc2o1 [Formula 7, 2-Methyl-5-nitro-1H-imidazole-1-ethyl 4-oxo-4H-1-benzopyran-2-carboxylate]	–	8.9	–	–	MBC [1, 5]: 10 µg/mL; melting point: 210 to 212 °C (dec.)
Cc1ncc([N+](=O)[O-])n1CCOC(=O)c1cccnc1 [Formula 1C, 2-Methyl-5-nitro-1H-imidazole-1-ethyl Nicotinate]	–	17.8	22.3 µg/mL	22.3 µg/mL	MBC [1, 7]: 4 µg/mL; MBC (Minimal Bactericidal Concentration) ([1]; lowest concentration that killed 100% of the H. pylori working solution, ATCC strain 43579, metronidazole-resistant, 72 hours): 5 µg/mL
2-methyl-5-nitro-1H-imidazole-1-ethyl 1-ethyl-1,4-dihydro-7-methyl-4-oxo-1,8-naphthyridine-3-carboxylate [Formula 10]	12.7	–	–	–	MBC (Minimal Bactericidal Concentration) [1]: 7 µg/mL
Cc1ncc([N+](=O)[O-])n1CCOC(=O)c1cc(C(=O)OCCn2c([N+](=O)[O-])cnc2C)cc([N+](=O)[O-])c1 [Formula 3C, Di (2-methyl-5-nitro-1H-imidazole-1-ethyl) 5-nitro-1,3-benzenedicarboxylate]	29.7	–	19.8 µg/mL	19.8 µg/mL	MBC [1, 8]: 3 µg/mL
CCn1cc(C(=O)OCCn2c([N+](=O)[O-])cnc2C)c(=O)c2ccc(C)nc21 [Formula 15]	–	8.9	–	–	MBC [1, 5]: 15 µg/mL
